# Values joined by “and” are separate entries in the source; they are usually repeats but may differ in a detail not shown here. Equal entries are not always repeated. Where two headings read alike, the source gives them in different places.
# Experiments:
# HsProRS = HsProRS (Homo sapiens, UniProt P07814); experiment: TR-FRET ligand displacement assay with tracer MAT379 (CoraFluor-1-Halo and anti-His6 antibody formats); assay type: binding; parameters: made in house; host or cells: E. coli SoluBL-21; conditions: for TR-FRET dose-response, normalized signal (SI Fig 11): individual replicates
# PfcProRS = biological target: T1, PfcProRS (Plasmodium falciparum, UniProt Q8I5R7); assay type: binding; conditions: single replicates
# T1 construct: made in house; host or cells: E. coli SoluBL-21
# P. falciparum Dd2-2D4 = experiment: P. falciparum asexual blood stage (ABS) growth assay, SYBR Green, 72 h, wild-type parasites; assay type: cell-based, Plasmodium falciparum; conditions: Plasmodium falciparum, DD2; SI Fig 16b; values on -log scale; read-out: ABS - Dd2-2D4 (converted)
# Chain of HsProRS (P07814 996-1512): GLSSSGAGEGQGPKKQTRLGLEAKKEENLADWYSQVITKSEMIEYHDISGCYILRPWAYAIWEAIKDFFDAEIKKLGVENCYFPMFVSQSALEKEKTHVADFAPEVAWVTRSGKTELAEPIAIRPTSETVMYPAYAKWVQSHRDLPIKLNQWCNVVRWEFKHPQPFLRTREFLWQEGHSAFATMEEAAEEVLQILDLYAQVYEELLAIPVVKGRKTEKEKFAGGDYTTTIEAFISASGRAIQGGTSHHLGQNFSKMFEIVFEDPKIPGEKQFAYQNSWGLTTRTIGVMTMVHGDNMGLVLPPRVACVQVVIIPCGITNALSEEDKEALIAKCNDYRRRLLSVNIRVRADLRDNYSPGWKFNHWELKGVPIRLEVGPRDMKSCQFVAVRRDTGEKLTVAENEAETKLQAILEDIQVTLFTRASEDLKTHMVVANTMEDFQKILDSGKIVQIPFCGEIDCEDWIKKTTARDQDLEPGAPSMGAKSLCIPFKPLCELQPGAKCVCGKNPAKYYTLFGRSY
# T1 sequence (Q8I5R7 249-746): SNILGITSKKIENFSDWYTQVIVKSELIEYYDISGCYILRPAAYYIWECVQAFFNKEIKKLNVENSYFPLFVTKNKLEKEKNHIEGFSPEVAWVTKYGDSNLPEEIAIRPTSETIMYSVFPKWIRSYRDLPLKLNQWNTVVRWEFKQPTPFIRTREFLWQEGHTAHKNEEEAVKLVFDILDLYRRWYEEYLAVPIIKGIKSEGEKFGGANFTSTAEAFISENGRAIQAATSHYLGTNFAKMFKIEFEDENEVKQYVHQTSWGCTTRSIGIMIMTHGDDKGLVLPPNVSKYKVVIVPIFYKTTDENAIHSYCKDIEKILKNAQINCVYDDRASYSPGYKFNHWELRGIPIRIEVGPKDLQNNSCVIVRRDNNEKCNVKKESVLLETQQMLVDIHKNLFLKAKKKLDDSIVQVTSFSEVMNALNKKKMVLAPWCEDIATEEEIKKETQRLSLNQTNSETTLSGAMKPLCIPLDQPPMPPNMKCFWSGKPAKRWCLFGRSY
smiles,measurement,setting,value
CC(C)(C)OC(=O)N1CCN(C(=O)Nc2nccnc2C(=O)NC2Cc3ccccc3C2)CC1 [compound 13],IC50,HsProRS,> 10 µM
same,"HsProRS % signal at 10 μM, + 100 μM proline","HsProRS; + 100 μM proline, 10 μM",52.2%
same,"normalized TR-FRET ligand displacement signal, dose-response replicates (SI Fig 6)",HsProRS; Log[inhibitor] (M) -5.000,5.04E-01 and 5.72E-01 and 5.31E-01
same,"TR-FRET dose-response, normalized signal (SI Fig 11)",HsProRS; Log[inhibitor] (M) -5.000,5.54E-01 and 6.12E-01 and 6.15E-01
same,"normalized TR-FRET ligand displacement signal, dose-response replicates (SI Fig 6)",HsProRS; Log[inhibitor] (M) -5.301,6.63E-01 and 7.73E-01 and 7.12E-01
same,"TR-FRET dose-response, normalized signal (SI Fig 11)",HsProRS; Log[inhibitor] (M) -5.301,7.87E-01 and 7.25E-01 and 6.74E-01
same,"normalized TR-FRET ligand displacement signal, dose-response replicates (SI Fig 6)",HsProRS; Log[inhibitor] (M) -5.601,9.43E-01 and 7.95E-01 and 9.57E-01
same,"TR-FRET dose-response, normalized signal (SI Fig 11)",HsProRS; Log[inhibitor] (M) -5.601,8.12E-01 and 8.26E-01 and 8.38E-01
same,"normalized TR-FRET ligand displacement signal, dose-response replicates (SI Fig 6)",HsProRS; Log[inhibitor] (M) -5.904,9.95E-01 and 9.88E-01 and 9.03E-01
same,"TR-FRET dose-response, normalized signal (SI Fig 11)",HsProRS; Log[inhibitor] (M) -5.904,8.50E-01 and 8.61E-01 and 8.43E-01
same,"normalized TR-FRET ligand displacement signal, dose-response replicates (SI Fig 6)",HsProRS; Log[inhibitor] (M) -6.208,1.02E+00 and 9.02E-01 and 9.17E-01
same,"TR-FRET dose-response, normalized signal (SI Fig 11)",HsProRS; Log[inhibitor] (M) -6.208,9.15E-01 and 9.28E-01 and 8.71E-01
same,"normalized TR-FRET ligand displacement signal, dose-response replicates (SI Fig 6)",HsProRS; Log[inhibitor] (M) -6.509,9.58E-01 and 9.37E-01 and 9.28E-01
same,"TR-FRET dose-response, normalized signal (SI Fig 11)",HsProRS; Log[inhibitor] (M) -6.509,9.05E-01 and 9.50E-01 and 9.14E-01
same,"normalized TR-FRET ligand displacement signal, dose-response replicates (SI Fig 6)",HsProRS; Log[inhibitor] (M) -6.796,1.05E+00 (2×) and 9.53E-01
same,"TR-FRET dose-response, normalized signal (SI Fig 11)",HsProRS; Log[inhibitor] (M) -6.796,9.07E-01 and 9.30E-01 and 8.71E-01
same,"normalized TR-FRET ligand displacement signal, dose-response replicates (SI Fig 6)",HsProRS; Log[inhibitor] (M) -7.108,1.05E+00 and 1.10E+00 and 9.73E-01
same,"TR-FRET dose-response, normalized signal (SI Fig 11)",HsProRS; Log[inhibitor] (M) -7.108,9.13E-01 and 9.30E-01 and 9.12E-01
same,"normalized TR-FRET ligand displacement signal, dose-response replicates (SI Fig 6)",HsProRS; Log[inhibitor] (M) -7.409,1.03E+00 and 1.01E+00 (2×)
same,"TR-FRET dose-response, normalized signal (SI Fig 11)",HsProRS; Log[inhibitor] (M) -7.409,9.32E-01 and 9.37E-01 and 8.25E-01
same,"normalized TR-FRET ligand displacement signal, dose-response replicates (SI Fig 6)",HsProRS; Log[inhibitor] (M) -7.710,9.23E-01 (2×) and 9.87E-01
same,"TR-FRET dose-response, normalized signal (SI Fig 11)",HsProRS; Log[inhibitor] (M) -7.710,9.18E-01 and 8.75E-01 and 8.91E-01
same,"normalized TR-FRET ligand displacement signal, dose-response replicates (SI Fig 6)",HsProRS; Log[inhibitor] (M) -8.000,9.04E-01 and 9.35E-01 and 9.98E-01
same,"TR-FRET dose-response, normalized signal (SI Fig 11)",HsProRS; Log[inhibitor] (M) -8.000,9.32E-01 and 9.16E-01 and 8.80E-01
same,"normalized TR-FRET ligand displacement signal, dose-response replicates (SI Fig 6)",HsProRS; Log[inhibitor] (M) -8.301,9.80E-01 and 9.08E-01 and 1.02E+00
same,"TR-FRET dose-response, normalized signal (SI Fig 11)",HsProRS; Log[inhibitor] (M) -8.301,8.80E-01 and 9.57E-01 and 9.53E-01
same,"normalized TR-FRET ligand displacement signal, dose-response replicates (SI Fig 6)",HsProRS; Log[inhibitor] (M) -8.602,9.80E-01 and 9.47E-01 and 9.05E-01
same,"TR-FRET dose-response, normalized signal (SI Fig 11)",HsProRS; Log[inhibitor] (M) -8.602,9.10E-01 and 9.58E-01 and 9.24E-01
same,"normalized TR-FRET ligand displacement signal, dose-response replicates (SI Fig 6)",HsProRS; Log[inhibitor] (M) -9.000,9.78E-01 and 9.57E-01 and 9.87E-01
same,"TR-FRET dose-response, normalized signal (SI Fig 11)",HsProRS; Log[inhibitor] (M) -9.000,9.07E-01 and 8.93E-01 and 8.97E-01
same,"normalized TR-FRET ligand displacement signal, dose-response replicates (SI Fig 6)",HsProRS; Log[inhibitor] (M) -9.301,9.45E-01 and 8.63E-01 and 9.67E-01
same,"TR-FRET dose-response, normalized signal (SI Fig 11)",HsProRS; Log[inhibitor] (M) -9.301,9.11E-01 and 8.69E-01 and 9.61E-01
same,HsProRS % signal at 10 μM,"HsProRS; no added proline/ATP (-), 10 μM",59.4%
same,IC50,"HsProRS; read-out: HsProRS IC50 + 100 μM proline, + 100 μM proline",> 10 µM
same,"dose-response signal (normalized), SI Fig 8",PfcProRS; Log[inhibitor] (M) -5.000,6.57E-01 and 6.36E-01 and 6.64E-01
same,"dose-response signal (normalized), SI Fig 8",PfcProRS; Log[inhibitor] (M) -5.301,8.73E-01 and 7.48E-01 and 7.96E-01
same,"dose-response signal (normalized), SI Fig 8",PfcProRS; Log[inhibitor] (M) -5.601,9.97E-01 and 9.02E-01 and 8.50E-01
same,"dose-response signal (normalized), SI Fig 8",PfcProRS; Log[inhibitor] (M) -5.904,9.78E-01 and 1.07E+00 and 1.00E+00
same,"dose-response signal (normalized), SI Fig 8",PfcProRS; Log[inhibitor] (M) -6.208,1.06E+00 (2×) and 9.45E-01
same,"dose-response signal (normalized), SI Fig 8",PfcProRS; Log[inhibitor] (M) -6.509,1.17E+00 and 1.01E+00 and 1.09E+00
same,"dose-response signal (normalized), SI Fig 8",PfcProRS; Log[inhibitor] (M) -6.796,1.13E+00 and 1.01E+00 and 1.17E+00
same,"dose-response signal (normalized), SI Fig 8",PfcProRS; Log[inhibitor] (M) -7.108,1.04E+00 and 9.91E-01 and 1.15E+00
same,"dose-response signal (normalized), SI Fig 8",PfcProRS; Log[inhibitor] (M) -7.409,1.05E+00 and 1.06E+00 and 1.03E+00
same,"dose-response signal (normalized), SI Fig 8",PfcProRS; Log[inhibitor] (M) -7.710,1.04E+00 and 9.80E-01 and 9.98E-01
same,"dose-response signal (normalized), SI Fig 8",PfcProRS; Log[inhibitor] (M) -8.000,1.08E+00 and 9.50E-01 and 1.05E+00
same,"dose-response signal (normalized), SI Fig 8",PfcProRS; Log[inhibitor] (M) -8.301,1.02E+00 and 1.08E+00 and 1.09E+00
same,"dose-response signal (normalized), SI Fig 8",PfcProRS; Log[inhibitor] (M) -8.602,9.84E-01 and 9.74E-01 and 9.67E-01
same,"dose-response signal (normalized), SI Fig 8",PfcProRS; Log[inhibitor] (M) -9.000,1.06E+00 and 9.60E-01 and 9.76E-01
same,"dose-response signal (normalized), SI Fig 8",PfcProRS; Log[inhibitor] (M) -9.301,1.07E+00 and 9.33E-01 and 9.62E-01
O=C(NC1Cc2ccccc2C1)c1nccnc1NC(=O)C1(O)CCCCC1 [compound 15],Kd,"HsProRS; HsProRS (KD [nM]) mean, no added proline/ATP (-)",2700 nM
same,Kd,"HsProRS; HsProRS - best Kd, SI Fig 16a, values on -log scale",21.8 nM
same,EC50,P. falciparum Dd2-2D4,1.5 µM
